From the NIST ThermoML archive (doi:10.1016/j.jct.2012.07.027)
Values joined by “and” are separate entries in the source; they are usually repeats but may differ in a detail not shown here. Equal entries are not always repeated.

Experiments:
[1] = for vapor or sublimation pressure: Closed cell (Static) method; for Normal melting temperature: DTA
[2] = Molar enthalpy of transition or fusion; details: Crystal; DSC

COC(=O)c1ccc(F)cc1 [methyl p-fluorobenzoate]
[1], Liquid
Details | vapor or sublimation pressure
268.58 K | 0.00431 kPa
270.54 K | 0.00518 kPa
272.52 K | 0.00628 kPa
274.49 K | 0.00754 kPa
276.46 K | 0.00902 kPa
278.44 K | 0.01071 kPa
280.4 K | 0.01279 kPa
281.87 K | 0.01451 kPa
283.38 K | 0.0165 kPa
285.35 K | 0.0195 kPa
287.34 K | 0.02314 kPa
289.34 K | 0.02719 kPa
291.34 K | 0.0319 kPa
293.24 K | 0.03702 kPa
295.27 K | 0.04353 kPa
297.28 K | 0.05103 kPa
299.22 K | 0.05905 kPa
301.21 K | 0.06815 kPa
303.17 K | 0.07895 kPa
305.16 K | 0.09121 kPa and 0.09107 kPa
307.18 K | 0.1051 kPa
309.2 K | 0.1209 kPa
311.15 K | 0.1388 kPa
313.16 K | 0.1594 kPa
315.12 K | 0.1817 kPa
317.15 K | 0.208 kPa
319.07 K | 0.2349 kPa
321.11 K | 0.2685 kPa
323.09 K | 0.3015 kPa
325.07 K | 0.3433 kPa
327.04 K | 0.3848 kPa
329.03 K | 0.4342 kPa
331 K | 0.4875 kPa
332.99 K | 0.549 kPa
334.97 K | 0.6142 kPa
336.95 K | 0.6904 kPa
338.92 K | 0.7681 kPa
340.9 K | 0.8612 kPa and 0.8627 kPa
342.87 K | 0.9546 kPa
344.85 K | 1.061 kPa

Details | Normal melting temperature [°C]
[1], Crystal | 0.6

Details | Molar enthalpy of transition or fusion [kcal/mol]
[2] | 3.68

COC(=O)c1ccc(I)cc1 [methyl p-iodobenzoate]
[1]
Details | vapor or sublimation pressure [kPa]
313.11 K, Crystal | 0.00044
315.03 K, Crystal | 0.00054
317.12 K, Crystal | 0.00069
319.05 K, Crystal | 0.00087
321.04 K, Crystal | 0.00108
323.04 K, Crystal | 0.00134
325 K, Crystal | 0.00165
326.97 K, Crystal | 0.00206
329 K, Crystal | 0.00253
330.93 K, Crystal | 0.00315
332.89 K, Crystal | 0.00387
334.91 K, Crystal | 0.00478
336.94 K, Crystal | 0.00583
342.8 K, Crystal | 0.01054
346.74 K, Crystal | 0.01524
350.73 K, Crystal | 0.02236
352.75 K, Crystal | 0.02707
356.66 K, Crystal | 0.03886
358.67 K, Crystal | 0.04652
360.6 K, Crystal | 0.05489
362.63 K, Crystal | 0.06557
364.61 K, Crystal | 0.07801
366.58 K, Crystal | 0.09145
368.45 K, Crystal | 0.1085
370.54 K, Crystal | 0.127
372.47 K, Crystal | 0.1479
374.46 K, Crystal | 0.1734
376.44 K, Crystal | 0.2047
378.41 K, Crystal | 0.2394
380.38 K, Crystal | 0.2786
386.32 K, Liquid | 0.4305
388.2 K, Liquid | 0.4717
390.26 K, Liquid | 0.5231
391.24 K, Liquid | 0.5484
392.21 K, Liquid | 0.5758
394.18 K, Liquid | 0.6343
396.15 K, Liquid | 0.698
398.14 K, Liquid | 0.7666
400.1 K, Liquid | 0.8418
402.07 K, Liquid | 0.9228
404.04 K, Liquid | 1.011
406.02 K, Liquid | 1.106

Details | Normal melting temperature [°C]
[1], Crystal | 113.52

Details | Molar enthalpy of transition or fusion [kcal/mol]
[2] | 7.1
